Like-named read-outs stand apart in the source and are kept apart here. One block for each compound: values may come before it.
Tests used:
estrogen receptors = molecular target: T1, estrogen receptors (Homo sapiens, UniProt P03372); test: Quantification of estrogen receptors in nuclear and whole cell extracts (ER-EIA monoclonal kit), Table 1; type: cell-based, human (MCF-7 human breast cancer cells)
T1 construct: estrogen receptor extracted from MCF-7 human breast tumor cells; endogenous in cells; host or cells: MCF-7 human breast cancer cells (nuclear extract, cytosol or whole cell extract)
T1 sequence (P03372 1-595): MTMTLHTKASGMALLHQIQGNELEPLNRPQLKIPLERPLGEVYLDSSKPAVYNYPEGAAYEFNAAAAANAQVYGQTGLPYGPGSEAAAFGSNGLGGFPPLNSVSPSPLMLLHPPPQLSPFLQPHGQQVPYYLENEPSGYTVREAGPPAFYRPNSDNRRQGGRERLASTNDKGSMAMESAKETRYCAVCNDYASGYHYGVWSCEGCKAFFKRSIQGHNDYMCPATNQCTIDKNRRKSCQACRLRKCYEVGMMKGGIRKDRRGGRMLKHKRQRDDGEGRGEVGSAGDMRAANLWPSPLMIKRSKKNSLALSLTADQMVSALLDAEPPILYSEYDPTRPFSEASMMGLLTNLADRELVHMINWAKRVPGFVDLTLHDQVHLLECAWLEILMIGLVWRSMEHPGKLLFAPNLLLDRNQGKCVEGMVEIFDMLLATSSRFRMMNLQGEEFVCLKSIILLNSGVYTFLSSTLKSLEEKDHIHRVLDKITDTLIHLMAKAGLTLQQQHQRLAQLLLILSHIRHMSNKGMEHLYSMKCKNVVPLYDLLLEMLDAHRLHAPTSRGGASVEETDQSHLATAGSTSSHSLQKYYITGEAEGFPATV
Experimental: (§1) Monolayers of MCF-7 human breast cancer cells are rinsed once with HBSS and scraped off culture dishes into 15 ml conical tubes with 5 ml HBSS. The cells are sedimented by centrifugation at 250×g for five minutes, suspended in 1 ml HBSS and sedimented by centrifugation at 2000 rpm in a tabletop centrifuge for five minutes in a 1.5 ml microfuge tube. Two PCV of a solution of a lysis buffer (25 mM HEPES, pH 7.8, 50 mM KCl, 0.5% Nonidet P 40, 2 mM dithiothreitol, 0.2 mM phenylmethylsulfonyl fluoride, 0.05 mg/ml leupeptin, 0.05 mg/ml aprotinin, 0.0025 mg/ml pepstatin, 0.005 mg/ml antipain) are added and cells are kept on ice for 15 minutes. Lysed cells are centrifuged for 3 minutes at 10,000×g, supernatant decanted, and kept as the cytosol fraction. Pellets are suspended in two PCV of extraction buffer (25 mM HEPES, pH 7.8, 500 mM KCl, 10% glycerol, 2 mM dithiothreitol and the above protease inhibitors), mixed for 20 minutes by inversion at 4 degrees C. and centrifuged at 10,000×g for 20 minutes. The supernatant is decanted and saved as nuclear extract. Both the nuclear extract and the cytosol are dialyzed for two hours against dialysis buffer (25 mM HEPES, pH 7.8, 50 mM KCl, 10% glycerol, 2 mM dithiothreitol and the above protease inhibitors). Nuclear and cytosol fractions are stored frozen at -80 degrees C. until used for mobility shift assays or determination of estrogen receptor content.
Whole cell extracts of tumor cells are prepared by the method of Reese and Katzenellenbogen, Nuc. Acids Res., 19: 6595-6602 (1991), with some modifications. Cell monolayers are rinsed once with HBSS, then scraped into HBSS and sedimented by centrifugation (5 min., 250×g). After resuspending in 1 mL HBSS, the cells are again sedimented at 250×g for 5 min at 4° C. The cell pellet is resuspended in lysis/extract buffer containing 20 mM Tris, pH 7.5, 10% glycerol (v/v), 0.5M sodium chloride and 0.5% NP-40 (v/v) and incubated on ice for 25 minutes, then the supernatants are dialyzed against 25 mM HEPES, pH 7.8, 10% glycerol (v/v), 0.5 mM dithiothreitol and 50 mM potassium chloride for 2 hours at 4° C. Both the lysis/extraction and the dialysis buffers contain protease inhibitors which included 0.5 mM phenylmethylsulfonylfluoride, 0.05 mg/mL leupeptin, 0.05 mg/mL aprotinin, 0.00-25 mg/mL pepstatin, and 0.005 mg/mL antipain. Dialyzed whole cell extracts are stored in aliquots at -80° C. until used.
The protein concentration for nucleus and cytosol fractions are determined with a BIO-RAD kit, according to the manufacturer's instructions.
Estrogen receptor levels in nuclear and whole cell extracts of tumor cells were quanitated using the ER-EIA monoclonal kit manufactured by Abbott Laboratories (Diagnostic Division) according to the kit instructions.
receptors in nuclear extracts.
.dagger.WCE refers to IC50 value for estrogen receptors in whole cel
A slash dividing two numbers indicates the results of two separate

[1] = molecular target: T2, estrogen receptor binding to an estrogen response element (Homo sapiens, UniProt P03372); test: Inhibition of estrogen receptor binding to an estrogen response element in DNA mobility shift assays; type: biochemical, human (nuclear extract of MCF-7 human breast cancer cells); conditions: read-out: integrated volume of shifted ERE oligo as percentage of control, given as % inhibition
T2 construct: estrogen receptor extracted from MCF-7 human breast tumor cells; endogenous in cells; host or cells: MCF-7 human breast cancer cells (nuclear extract, cytosol or whole cell extract)
T2 sequence (P03372 1-595): T1 sequence (P03372 1-595)
Experimental: as §1
Briefly, to each reaction tube was added 0.01 mg nuclear extract, 2 μg poly dIdC, 50 mM NaCl, 1 mM dithiothreitol and 10 mM Tris, pH 7.5 in a total volume of 0.01 ml and the mixture was kept at room temperature for 10 minutes. A ^32 P-labelled estrogen response element [ERE]

GAPDH mRNA = GAPDH mRNA levels in treated MCF-7 human breast tumor cells (positive control probe); type: cell-based; conditions: 30 μM, 24 hr;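 further: Phosphoimager intensity of radioactive mRNA bands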
Experimental: (§2) After treatment with 30 μM drug for 24 hr, total RNA is isolated according to the guanidinium isothiocyanate method using an RNA preparation kit from 5 Prime-3 Prime, Inc., following the manufacturer's instructions. The RNA is separated by formaldehyde gel electrophoresis and transferred to a nylon membrane.

estrogen receptor mRNA = test: Reduction of estrogen receptor mRNA levels in treated MCF-7 human breast tumor cells; type: cell-based; conditions: 30 μM, 24 hr;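 on Estrogen Receptor mRNA band intensity: Phosphoimager intensity of radioactive mRNA bands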
Experimental: as §2

MCF-7 estrogen receptor = molecular target: T3, MCF-7 estrogen receptor (Homo sapiens, UniProt P03372); test: Competitive binding assay, Relative Binding Affinities on binding of estradiol to MCF-7 estrogen receptor
T3 construct: estrogen receptor extracted from MCF-7 human breast tumor cells; endogenous in cells; host or cells: MCF-7 human breast cancer cells (nuclear extract, cytosol or whole cell extract)
T3 sequence (P03372 1-595): T1 sequence (P03372 1-595)
Experimental: Briefly, RBAs are determined from competitive binding assays with several concentrations of estradiol (E2) with and without test compound. After 16-18 hours of incubation at 4 degrees C., unbound [^3 H] E2 is separated from ER-bound [^3 H] E2. The IC50 is determined and the RBA is calculated as: […]

[2] = estrogen receptors in nuclear extracts
[3] = WCE: estrogen receptors in whole cell extracts

IC50 (estrogen receptors; [2]): 27 µM
Structure (SMILES): Cc1c(CC(=O)NCCCCCCC(=O)N(C)c2ccccc2)c2cc(O)ccc2n1C(=O)c1ccccc1 [MDL 103,005, 7-[[5-Hydroxy-1-benzoyl-2-methyl-1H-indol-3-yl]-acetylamino]-heptanoic acid methyl-phenyl-amide]

IC50 (estrogen receptors; [3]): 28 µM
Structure (SMILES): CCCCc1ccc(C(=O)n2c(C)c(CC(=O)NCCCCCCC(=O)N(CC)CC)c3cc(O)ccc32)cc1 [MDL 103,494, 7-[[5-Hydroxy-1-(4-butylbenzoyl)-2-methyl-1H-indol-3-yl]-acetylamino]-heptanoic acid diethyl-amide]

IC50 (estrogen receptors; [2]): 16 µM
IC50 (estrogen receptors; estrogen receptors in nuclear extracts, second of two separate experiments (after the slash)): 17 µM
Structure (SMILES): CCCCN(C)C(=O)CCCCCCNC(=O)Cc1c(-c2ccc(O)cc2)n(Cc2ccccc2)c2ccc(O)cc12 [MDL 103,623, 7-[[5-Hydroxy-1-benzyl-2-[(4-hydroxy)phenyl]-1H-indol-3-yl]-acetylamino]-heptanoic acid methyl butyl-amide]

IC50 (estrogen receptors; [3]): 14 µM
Structure (SMILES): CCCCN(C)C(=O)CCCCCCCNC(=O)Cc1cn(Cc2ccccc2)c2ccccc12 [MDL 103,948, 8-[[1-Benzyl-1H-indol-3-yl]-acetylamino]-octanoic acid methyl-butyl-amide]

IC50 (estrogen receptors; [2]): 16 µM
Structure (SMILES): CCCCN(C)C(=O)CCCCCCCNC(=O)Cc1c(-c2ccc(F)cc2)n(Cc2ccccc2)c2ccc(O)cc12 [MDL 103,970, 8-[[5-Hydroxy-1-benzyl-2-(4-fluorophenyl)-1H-indol-3-yl]-acetylamino]-octanoic acid methyl-butyl-amide]

IC50 (estrogen receptors; [2]): 23.5 µM
Structure (SMILES): CCCCN(C)C(=O)CCCCCCNC(=O)Cc1c(C)n(CCCc2ccccc2)c2ccc(O)cc12 [MDL 104,261, 7-[[5-Hydroxy-1-(3-phenylpropyl)-2-methyl-1H-indol-3-yl]-acetylamino]-heptanoic acid methyl-butyl-amide]

IC50 (estrogen receptors; [2]): 25 µM
Structure (SMILES): CCCCNC(=O)CCCCCCCNC(=O)Cc1c(-c2ccc(O)cc2)n(Cc2ccccc2)c2ccc(O)cc12 [MDL 104,262, 8-[[5-Hydroxy-1-benzyl-2-[(4-hydroxy)phenyl]-1H-indol-3-yl]-acetylamino]-octanoic acid butyl-amide]

Structure (SMILES): CCCCN(C)C(=O)CCCCCCCNC(=O)Cc1c(-c2ccc(OC(C)=O)cc2)n(Cc2ccccc2)c2ccc(OC(C)=O)cc12 [MDL 104,401, 8-[[5-Acetoxy-1-benzyl-2-[(4-acetoxy)-phenyl]-1H-indol-3-yl]-acetylamino]-octanoic acid methyl-butyl-amide]
IC50 (estrogen receptors; [2]): 28 µM
inhibition at 2 µM [1]: 120%
inhibition at 5 µM [1]: 92%
inhibition at 10 µM [1]: 59%
inhibition at 20 µM [1]: 49%
inhibition at 30 µM [1]: 44%

IC50 (estrogen receptors; [2]): 16 µM
Structure (SMILES): CCN(CC)C(=O)CCCCCCCNC(=O)Cc1c(C)n(C(=O)c2ccc(Cl)cc2)c2ccc(O)cc12 [MDL 104,631, 8-[[5-Hydroxy-1-(4-chlorobenzoyl)-2-methyl-1H-indol-3-yl]-acetylamino]-octanoic acid diethyl-amide]

IC50 (estrogen receptors; [2]): 12 µM
Structure (SMILES): CCCCN(C)C(=O)CCCCCCCNC(=O)Cc1cn(Cc2ccccc2)c2ccc(F)cc12 [MDL 104,822, 8-[[5-Fluoro-1-benzyl-1H-indol-3-yl]-acetylamino]-octanoic acid methyl-butyl-amide]

IC50 (estrogen receptors; [2]): 20 µM
Structure (SMILES): CCCCN(C)C(=O)CCCCCNC(=O)Cc1c(-c2ccc(O)cc2)n(Cc2ccccc2)c2ccc(O)cc12 [MDL 104,982, 6-[[5-Hydroxy-1-benzyl-2-[(4-hydroxy)phenyl]-1H-indol-3-yl]-acetylamino]-hexanoic acid methyl-butyl-amide]

IC50 (estrogen receptors; [2]): 16 µM
Structure (SMILES): CCCCN(C)C(=O)CCCCCCCNC(=O)Cc1c(C)n(C(=O)c2ccc(OC)cc2)c2ccc(O)cc12 [MDL 105,517, 8-[[5-Hydroxy-1-(4-methoxybenzoyl)-2-methyl-1H-indol-3-yl]-acetylamino]-octanoic acid methyl-butyl-amide]

IC50 (estrogen receptors; [2]): 19 µM
Structure (SMILES): CCCCN(C)C(=O)CCCCCNC(=O)Cc1c(C)n(C(=O)c2ccc(Cl)cc2)c2ccc(O)cc12 [MDL 105,643, 6-[[5-Hydroxy-1-(4-chlorobenzoyl)-2-methyl-1H-indol-3-yl]-acetylamino]-hexanoic acid methyl-butyl-amide]

inhibition at 2 µM ([1]; 2 μM): 7.6%
inhibition at 5 µM ([1]; 5 μM): 60%
inhibition at 10 µM ([1]; 10 μM): 84%
inhibition at 20 µM ([1]; 20 μM): 33%
inhibition at 30 µM ([1]; 30 μM): 30%
inhibition of estradiol binding to MCF-7 ER (MCF-7 estrogen receptor; doses of 100 or 200 nM): did not significantly inhibit
inhibition of estradiol binding to MCF-7 ER (MCF-7 estrogen receptor; typically, at doses of 100 or 200 nM): less than 10%
Structure (SMILES): CCCCN(C)C(=O)CCCCCCCNC(=O)Cc1c(C)n(C(=O)c2ccccc2)c2ccc(O)cc12 [MDL 105,813, 8-[[5-Hydroxy-1-benzoyl-2-methyl-1H-indol-3-yl]-acetylamino]-octanoic acid methyl-butyl-amide]
GAPDH mRNA band intensity (GAPDH mRNA; replicate 1): 6,996
GAPDH mRNA band intensity (GAPDH mRNA; replicate 2): 4,830
ER/GAPDH mean (estrogen receptor mRNA; mean of replicates 1 and 2): 0.63
ER/GAPDH (estrogen receptor mRNA; replicate 1): 0.75
Estrogen Receptor mRNA band intensity (estrogen receptor mRNA; replicate 1): 5,288
ER/GAPDH (estrogen receptor mRNA; replicate 2): 0.5
Estrogen Receptor mRNA band intensity (estrogen receptor mRNA; replicate 2): 2,418
activity at 30 µM (estrogen receptor mRNA; Homo sapiens, MCF7, read-out: ER/GAPDH % Control): 17%

— patent US5877202A, “Indole derivatives useful to treat estrogen-related neoplasms and disorders” (priority 1996, dated 1999)
